This experiment is described as follows: Inhibition of Wistar rat intestinal maltase assessed as inhibition of D-glucose release after 30 mins by spectrophotometry.

pIC50: −log10 of the molar value.

Turning to `OC[C@@H]1N[C@@H](CCCCc2ccc(O)cc2)[C@H](O)[C@H]1O`, the pIC50 (in general, −log10 of the IC50, conventionally taken in molar units) is 6.77.

The values are drawn from BindingDB's records for doi:10.1016/j.bmcl.2014.06.001 (Tohoku Pharmaceutical University, 2014).
